Results taken from a melting point compilation (Tetko et al.; mined from patent text by program, amines drawn as free bases though some values may be those of a salt).
Residues, ends and D or L forms follow the SMILES beside them. *: point of attachment. OiPr = CC(C)O*

Structure (SMILES)	melting point [°C]
CN(C)C1(c2ccc(C(C)(C)C)cc2)CCC(=O)CC1	82.5 to 87
C=Cc1ccc(CNc2ccccn2)c(Cl)c1	119 to 121
CCOC(=O)c1[nH]c2c(c1OCC1CO1)CCCC2 (stereo not drawn)	102 to 104
N#CC1(N2CCN(c3ccc(N4CC(CCC(N)=O)OC4=O)cc3F)CC2)CCOCC1 (stereo not drawn)	134 to 137
CCCn1c(=O)n(CC(C)O)c(=O)c2[nH]c(C34CC5CC(CC3C5)C4)nc21 (stereo not drawn)	195 to 197
COC(=O)c1cc(OC)c(C(=O)OC)cc1OC	141 to 143
Clc1ccc2[nH]cc(C3=CCN(CCOc4ccccc4)CC3)c2c1	172
COC(=O)c1sc(OC)cc1OP(=O)(OC)OC	35
CC(=O)OC1CSC(Sc2ccc(C#N)cc2C#N)C(OC(C)=O)C1OC(C)=O (stereo not drawn)	228
NCCc1ccc(C(=O)CCC(=O)O)cc1	234 to 235
CCCCCCCCCCN=C1SC(=CC(=O)O)C(=O)N1CCCCCCCCCC	68 to 69
CN1CCN(C(=O)c2cc(S(=O)(=O)NC3CCCCC3)ccc2N)CC1	167 to 168
C=CCOC(=O)C1=C(C)NC(C)=C(C(=O)OCC)C1c1ccc(OC)c(OC)c1OC (stereo not drawn)	134 to 135
COC(=O)c1cc(O)nn1Cc1ccc(Cl)cc1Cl	222 to 223
CC(=O)OC(c1nc(C)c(C)s1)(c1nc(C)c(C)s1)C(F)(F)F	163 to 164
COc1ccnc(N2CCN(Cc3ccc(C(C)NC(C)=O)cc3)CC2)n1 (stereo not drawn)	113 to 115
CC(C)OC(=O)C(C)NC(=O)C(CC(=O)O)NC(=O)C(C)N (stereo not drawn) (H-Ala-Asp-Ala-OiPr; configuration not given here)	219 to 221
CCc1ccc(OCCCCCCN2CCN(c3nccs3)CC2)cc1	21 to 23
CCCCCCS(=O)(=O)c1c(Br)cc(N)cc1Br	192 to 194
COc1ccc(C(CN(C)C)C2(O)CCCCC2)cc1 (stereo not drawn)	78.3 to 79.5
Cc1nn(-c2ccc(C(F)(F)F)cn2)cc1COc1cc(/C=C/C(=O)O)n(C)n1	208 to 209

Structure (SMILES)	melting point [°C]
Brc1ccc2c3c(cccc13)C(NCCCCCCCCCCn1ccnc1)=N2	115 to 116
Cc1cc(C)c([N+](=O)[O-])cc1-n1c(C)cc(C)c(C#N)c1=O	262 to 263
CN(C)c1cccc(NC(=O)NC2C(=O)N(CC34CC5CC(CC(C5)C3)C4)c3ccccc3N(c3ccccc3)C2=O)c1 (stereo not drawn)	263 to 265
CC(C)CCCC(C)C1CCC2C3CCC4CC(OC=O)CCC4(C)C3CCC12C (stereo not drawn)	107 to 108
Cc1cc(C(C)(C)C)c(O)c(C)c1CC(=O)O	161 to 165
CC(=O)c1ccc(N)c(C#N)c1Cl	189 to 193
Cc1cc(C)c2c(c1C)OC(C)(CBr)C2 (stereo not drawn)	39 to 40
COC(=O)C1(S(=O)(=O)N2CCC(c3ccc(Br)c(C)c3)CC2)CCOCC1	162 to 163
CCc1nc(Cc2ccc([N+](=O)[O-])cc2)no1	69 to 70
COc1cc(OC)nc(NC(=O)NS(=O)(=O)N=CN(C)CSC)n1	167 to 168
OCC1OC(n2c(Cl)nc3cc(Cl)c(Cl)cc32)C(O)C1O (stereo not drawn)	175 to 176
CC1CN(c2ccc(N)cc2)C(C)CN1CC(O)(Cn1cncn1)c1ccc(Cl)cc1Cl (stereo not drawn)	74 to 75
CC1CCc2c(N3CCCCC3)c(Cl)cc3c(=O)c(C(=O)O)cn1c23 (stereo not drawn)	246 to 248
COc1cccc(-c2ccc3c(c2)c(C(=O)C(=O)O)cn3Cc2ccc(C(C)(C)C)cc2)c1	86 to 87
Cc1oc(C=Cc2cccc(C(F)(F)F)c2)nc1CO	134 to 135
CCCCCCCC(=O)NCCCCCCOS(C)(=O)=O	62 to 63
Cc1ccccc1-c1c(C#N)nn(-c2c(Cl)cc(C(F)(F)F)cc2Cl)c1N	199 to 202
Cc1sc2c(c1C(=O)c1ccc(N(C)C)cc1)CCC2C(=O)O (stereo not drawn)	171 to 173
Cc1cccnc1NC(N)=S	152 to 154
CCC(Cn1cncn1)(C(N)=O)c1ccc(Cl)cc1Cl (stereo not drawn)	164 to 165

Now from value to molecule:

melting point [°C]	Structure (SMILES)
141 to 142	OCc1ccc(OCc2coc(-c3ccccc3)n2)cc1
160 to 162	CNc1ccc(C#Cc2cncc(-c3nc(NC)nc4cc(OC)c(OC)cc34)c2)cn1
162	O=S(CCCCOc1ccc(C2=C(c3ccccc3)CCCc3cc(O)ccc32)cc1)Cc1ccccn1 (stereo not drawn)
169 to 170	CN(C)c1ccc(C(=O)N[C@H](Cc2ccc(C(F)(F)F)cc2)[C@@H](O)c2ccc(F)cc2)c2ccccc12 (racemic)
148 to 149	c1ccc(CSc2nnc(-c3ccc4c(c3)CCO4)o2)cc1
222	CC(=O)c1c2sc3ccccc3nc-2ccc1=O
140 to 141	CC(=O)NCc1ccc2ccn(C3CCN(CCc4ccc(Br)cc4)CC3)c2c1
160 to 161	CS(=O)(=O)c1ccc(-c2cnn(CC(F)(F)F)c(=O)c2N2CCCCC2)cc1
129 to 131	C=Cc1ccc(ON2C(=O)c3ccccc3C2=O)cc1
203 to 205	O=C1CCC(N2Cc3c(OCc4ccc(OCCN5CCOCC5)cc4)cccc3C2=O)C(=O)N1 (stereo not drawn)
129 to 130	O=c1[nH]c(=O)n(C2CC(O)C(COCc3ccccc3)O2)cc1F (stereo not drawn)
150 to 151	CS(=O)(=O)Nc1cccc(C(=O)NCCN2CCC(Oc3ccc(Cl)c(Cl)c3)CC2)c1
90 to 91	CCOP(=O)(CCCCc1ccc2ccccc2c1O)OCC
195 to 197	CCCCc1oc2ccccc2c1-c1ncc(-c2ccc3cc(OCc4ccc(C(=O)OC)cc4C(=O)OC)ccc3c2)o1
163 to 167	CC(=O)Oc1ccc([N+](=O)[O-])cc1C1(OC(C)=O)C(=O)c2ccccc2C1=O
130 to 131	c1ccc(CN2CCC(c3cc(-c4ccccc4)[nH]n3)CC2)cc1
190	COc1cccc(CCN2C(=O)c3ccccc3C2(O)c2ccncc2)c1 (stereo not drawn)
118 to 120	O=S(=O)(/C=C/c1ccc(Cl)cc1)Nc1cccc(Cl)c1
104 to 105	COC(=O)c1cc(OC)c(OCc2ccccc2)cc1[N+](=O)[O-]

melting point [°C]	Structure (SMILES)
85	CC(C)OC1COc2ccc(OCc3ccc4ccccc4n3)cc2C1=O (stereo not drawn)
126 to 130	COc1ccc(-c2ocnc2-c2cc(OC)c(N)c(OC)c2)cc1O
202 to 204	CCCc1c(CNc2ccc(C(=O)O)cc2)ccc(C(C)=O)c1O
177 to 178	CC(C)C(NC(=O)OCc1cccnc1)C(=O)NC(Cc1ccccc1)C(O)C(Cc1ccccc1)NC(=O)C(NC(=O)OCc1cccnc1)C(C)C (stereo not drawn)
66.5 to 68	Cc1nc2c(CCCc3ccccc3)cccn2c1CC#N
134 to 135	O=C1c2ccccc2C2(c3ccc(Cl)cc3)NCCCCN12 (stereo not drawn)
133 to 135	O=C(O)C(=O)c1ccc(OCCCCOc2ccc3ccccc3c2)cc1
95 to 97	COC(=O)C(Oc1ccc(C(F)(F)F)cc1)c1ccc(OCCOc2ccc(Cl)cc2)cc1 (stereo not drawn)
42 to 44	CCc1cc(Nc2ccccc2)cc(CC)c1N
190	NC(=O)N(O)CC(=O)Nc1ccc(Oc2ccccc2)cc1
272 to 274	N=C(NO)c1ccc(-c2ccc(-c3ccc(C(=N)NO)cn3)o2)nc1
188 to 190	O=C(NCc1ccc(Cl)cc1)c1noc2ccc(I)cc2c1=O
175 to 176	O=C(O)c1ccccc1-c1cc(-c2cccc(C(F)(F)F)c2)no1
93 to 99	COc1cc(N2CCCN(C[C@H](O)CO)CC2)ccc1Nc1ncc2ccc(-c3ccccc3N(C)S(C)(=O)=O)n2n1
189 to 191	Cc1ccc(Sc2ccccc2C(=O)O)c([N+](=O)[O-])c1
109 to 125	O=C(Nc1cc2c(cn1)[nH]c1ccccc12)c1cccs1
128 to 131	COC(=O)C(=C(CBr)CBr)N1CC(N2C(=O)c3ccccc3C2=O)C1=O (stereo not drawn)
230 to 232	Cc1[nH]cnc1/C=C1\CCCc2c(c3ccccc3n2C)C1=O
211 to 213	COc1cc(OC)n2nc(NS(=O)(=O)c3c(Cl)cccc3Cl)nc2n1

melting point [°C]	Structure (SMILES)
169 to 171	O=C(O)c1cccc(S(=O)(=O)Oc2ccc(-c3ccc(-c4c(Cc5ccccc5)oc5ccccc45)cc3)cc2)c1
158	CC(C)CN=C1C(c2ccccc2)=C(c2ccccc2)C(c2ccccc2)=C1c1ccccc1
85.5 to 87	COc1ccc(S(=O)(=O)Nc2ccccc2OC)cc1
137 to 139	Fc1ccc(CNC(=S)N2CCc3c([nH]c4ccccc34)C2c2ccc3c(c2)OCO3)cc1 (stereo not drawn)
146 to 147	CCOC(=O)CC1CN=C(c2cc3cccc(N(C)S(=O)(=O)c4cccnc4)c3[nH]2)S1 (stereo not drawn)
> 300	O=C1c2ccccc2C(=O)c2sc(-c3ccc([N+](=O)[O-])o3)nc21
134 to 135	CS(=O)(=O)c1ccc(C2=C(c3ccc(C(F)(F)F)cc3)CCC2)cc1
65 to 66	COC(=O)Cn1c(C)cc(Sc2ccccc2)c(N)c1=O
141 to 142	CCCCOc1c(CNC(=O)OC(C)(C)C)n(CC(C)C)c(=O)c2ccc(/C=C/c3cscn3)cc12
170 to 172	COC(=O)CC[C@H](NC(=O)c1ccc(CCn2cnc3nccc-3c2NO)cc1)C(=O)OC
> 250	O=c1[nH]c2cc(F)c(F)cc2c(=O)n1OCc1ccccc1
73 to 76	C=CCn1c(CSC#N)nc2ccccc2c1=O
108 to 110	O=CC1=CC2=C(OC1)c1ccccc1S(=O)(=O)N2
63 to 65	COC(=O)C=Cc1csc2ccccc12
210 to 214	Nc1nc2ccc(C(O)C(COc3ccccc3)N3CCC(Cc4ccccc4)CC3)cc2s1 (stereo not drawn)
152 to 154	CN1OCC(=O)N(C(c2ccccc2)c2ccccc2)C1=S
121 to 122	CS(=O)(=O)OCCc1ccc(OCc2coc(/C=C/c3ccccc3)n2)cc1
186 to 191	C[C@@H](C(=O)Nc1ccc(-n2nc(C(F)(F)F)cc2C2CC2)cc1)n1nnc2cccnc21
205 to 206	CCc1cccc(CC)c1NC(=O)C(Cc1ccccc1)NC(C)=O (stereo not drawn)
